We go through 2 molecules from US20020037864A1, “2'-Propionate clarithromycin dodecyl sulfate and its preparation and pharmaceutical composition containing the same” (priority 2000, published 2002).

Data set [1] deals with Streptococcus herbarum, Streptococcus haemolyticus, Staphylococcus aureus, Enterococcus faecalis, Staphylococcus epidermidis, Listeria monocytogenes, and ATCC …. As to the kind of experiment: Antibacterial activity in vitro comparison assay, agar dilution method (NCCLS). Conditions: for MIC50 / MIC90: agar dilution, panel of test strains. Format: cell-based. How it is done:
The primary antibacterial activity in vitro comparison assay between compound (I) (named CES hereafter) and clarithromycin are performed by No. 1 Hospital of Zhejiang Medical University. The agar dilution method, according to the method recognized by NCCLS (“National clinical analysis criterion protocol” (2nd edition), Ye Yingwu and Wang Yusan ed., p562, Southeast University Press), is taken in the following pharmaceutical sensitivity tests against Streptococcus herbarum, Streptococcus haemolyticus, Staphylococcus aureus, Enterococcus faecalis, Staphylococcus epidermidis, Listeria monocytogenes, and ATCC 25923.

Data set [2] deals with mice and rat. Conditions: orally administrated to mice and rat; cited from earlier work.
For data set [3], the system named is mice. As to the kind of experiment: Maximal tolerance test. Format: in vivo. The protocol:
Acute toxicity animal trial to compound (I) of the present invention is carried out by using 20 KM mice (10 males) weighted 18-22 g. […] Subsequently, the maximal tolerance dose to mice is greater than 8 g/kg as maximal tolerance test determined. […] The mice restored gradually 3 days after administration of compound (I).

The nature of data set [4]: Solubility (physical & chemical property). Type of data set: physicochemical.
Data set [5] in a line: Acute toxicity animal trial, oral administration. Type of data set: in vivo. Conditions: both sexes, mouse, in vivo, po; orally administrated to KM mice.
Data set [6] has as its system KM mice. As to the kind of experiment: Acute toxicity animal trial, oral administration. Type of data set: in vivo. The settings on record: mice after administration.
The nature of data set [7]: pH value of aqueous mixture (Chinese Pharmacopoeia 2000, Annex VI H). The settings on record: 0.4 g added into 10 ml water. Format: physicochemical. How it is done: The pH value of compound (I) of present invention is 5-7 as pH value analyzer (Model PHS-3C, Shanghai leici equipment factory) determined according to the method described in ANNEX VIH (on the measurement of pH value) to Chinese Pharmacopoeia (2000 edition), wherein compound (I) of present invention 0.4 g is added into 10 ml water and stirring extensively.

Values after ≈ are worked out from the molar mass of the structure shown. Structures can show the parent of a compound that is named as a salt.

One may read the MIC50 as an inhibitory concentration at the 50% level, which refers to growth in some studies and to a panel of isolates in others. A low value points to greater potency. As usually defined, the LD50 is the dose at which mortality reaches 50%. Take `CC[C@H]1OC(=O)[C@H](C)[C@@H](O[C@H]2C[C@@](C)(OC)[C@@H](O)[C@H](C)O2)[C@H](C)[C@@H](O[C@@H]2O[C@H](C)C[C@H](N(C)C)[C@H]2O)[C@](C)(OC)C[C@@H](C)C(=O)[C@H](C)[C@@H](O)[C@]1(C)O` [clarithromycin]: in data set [1], the MIC50 came out at 0.25 µg/mL (≈ 0.334 µM) and the MIC90 entry is “≧128 μg/ml”. The LD50 in data set [2] is 2700 to 3500 mg/kg.
Turning to `CCC(=O)OC1C(O[C@@H]2C(C)[C@H](OC3CC(C)(OC)C(O)C(C)O3)[C@@H](C)C(=O)O[C@H](CC)[C@@](C)(O)[C@H](O)C(C)C(=O)[C@H](C)C[C@@]2(C)OC)OC(C)CC1N(C)C` (some centres unmarked) [compound (I), 2′-propionate clarithromycin dodecyl sulfate], the maximal tolerance dose entry in data set [3] is “greater than 8 g/kg”. Besides, in data set [4], the “solubility in acetone, ethanol, methanol and chloroform” value is listed as “freely soluble”; the solubility in water result is reported as “almost insoluble”. In data set [1], the MIC50 is 0.25 µg/mL and the MIC90 entry is listed as “≧128 μg/ml”. The “antibacterial activity relative to clarithromycin” value in data set [1] (in vitro comparison) is on record as “comparable to that of clarithromycin”. For the same molecule, in data set [5], the LD50 is above 7500 mg/kg. Further, in data set [6], the death entry is given as “no death was observed”; the signs after administration result was “furriery flab, drowsiness, spiritless and reduced movement”; the “time to gradual restoration” value is given as 3 days. Further, the pH value in data set [7] was 5-7.
